Source: US6653300B2, “Pyrazole compounds useful as protein kinase inhibitors” (Vertex Pharmaceuticals Incorporated, priority 2000, dated 2003)
Where two headings read alike, the source gives them in different places.

Tests used:
[1] = target: T1, GSK-3β (AA 1-420) (Homo sapiens, UniProt P49841); experiment: Ki determination for the inhibition of GSK-3 (coupled enzyme system); assay type: biochemical; conditions: 20 μM ATP, 20 nM GSK-3β, 30° C.
T1 construct: GSK-3β (AA 1-420)
In short: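 GSK-3β (AA 1-420, 20 nM) was run in a pyruvate kinase/LDH-coupled NADH assay in 100 mM HEPES pH 7.5, 10 mM MgCl2, 25 mM NaCl, 1 mM DTT, 1.5% DMSO, with 300 μM phosphopeptide substrate. Compound (0.002–30 μM) was preincubated 10 min at 30° C, then 20 μM ATP was added.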

[2] = target: T2, Aurora-2 (Homo sapiens, UniProt O14965); experiment: Ki determination for the inhibition of Aurora-2 (coupled enzyme assay); assay type: biochemical; conditions: 70 nM Aurora-2, 30° C.
T2 sequence (O14965 1-403): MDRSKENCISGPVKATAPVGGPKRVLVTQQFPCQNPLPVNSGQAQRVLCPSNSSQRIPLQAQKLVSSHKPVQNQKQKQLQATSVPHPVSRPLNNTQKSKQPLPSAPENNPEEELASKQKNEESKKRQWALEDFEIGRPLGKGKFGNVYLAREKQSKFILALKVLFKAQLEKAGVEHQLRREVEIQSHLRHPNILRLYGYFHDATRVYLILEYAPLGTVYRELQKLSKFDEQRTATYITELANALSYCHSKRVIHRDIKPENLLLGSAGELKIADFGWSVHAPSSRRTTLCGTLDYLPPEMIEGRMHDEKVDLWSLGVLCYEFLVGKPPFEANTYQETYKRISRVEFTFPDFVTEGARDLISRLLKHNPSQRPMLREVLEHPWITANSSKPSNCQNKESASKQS
In short: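 Ki came from reaction rates plotted against inhibitor concentration, with rates taken as A340 decrease over 5 min at 30° C. Enzyme (70 nM final) was added after 10 min compound preincubation; stock buffer held […], 800 μM LRRASLG, PK/LDH coupling, pH 7.5.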

[3] = target: T3, human Src kinase (Homo sapiens, UniProt P12931); experiment: SRC inhibition assay (radioactivity-based or spectrophotometric assay); assay type: biochemical; conditions: recombinant human Src kinase, assay A or B
T3 construct: full length recombinant human Src kinase (from Upstate Biotechnology, cat. no. 14-117); purchased Upstate Biotechnology 14-117; host or cells: baculo viral cells
Description: The compounds were evaluated as inhibitors of human Src kinase using either a radioactivity-based assay or spectrophotometric assay. The compounds were assayed as inhibitors of full length recombinant human Src kinase (from Upstate Biotechnology, cat. no. 14-117) expressed and purified from baculo viral cells. […] P-0275). […] In a typical assay, all the reaction components with the exception of ATP were pre-mixed and aliquoted into assay plate wells. […] The assay plate was incubated at 30° C. for 10 min before initiating the reaction with ^33P-ATP. After 20 min of reaction, the reactions were quenched with 150 μl of 10% trichloroacetic acid (TCA) containing 20 mM Na3PO4. The quenched samples were then transferred to a 96-well filter plate (Whatman, UNI-Filter GF/F Glass Fiber Filter, cat no. 7700-3310) installed on a filter plate vacuum manifold. Filter plates were washed four times with 10% TCA containing 20 mM Na3PO4 and then 4 times with methanol. 200 μl of scintillation fluid was then added to each well. The plates were sealed and the amount of radioactivity associated with the filters was quantified on a TopCount scintillation counter. The radioactivity incorporated was plotted as a function of the inhibitor concentration. The data was fitted to a competitive inhibition kinetics model to get the Ki for the compound. The ADP produced from ATP by the human recombinant Src kinase-catalyzed phosphorylation of poly Glu-Tyr substrate was quanitified using a coupled enzyme assay (Fox et al (1998) Protein Sci 7, 2249). In this assay one molecule of NADH is oxidised to NAD for every molecule of ADP produced in the kinase reaction. The disappearance of NADH can be conveniently followed at 340 nm. […] In a typical assay, all the reaction components with the exception of ATP were pre-mixed and aliquoted into assay plate wells. […] The absorbance change at 340 nm with time, the rate of the reaction, was monitored on a molecular devices plate reader. The data of rate as a function of the inhibitor concentration was fitted to competitive inhibition kinetics model to get the Ki for the compound.

T3 sequence (P12931 whole entry): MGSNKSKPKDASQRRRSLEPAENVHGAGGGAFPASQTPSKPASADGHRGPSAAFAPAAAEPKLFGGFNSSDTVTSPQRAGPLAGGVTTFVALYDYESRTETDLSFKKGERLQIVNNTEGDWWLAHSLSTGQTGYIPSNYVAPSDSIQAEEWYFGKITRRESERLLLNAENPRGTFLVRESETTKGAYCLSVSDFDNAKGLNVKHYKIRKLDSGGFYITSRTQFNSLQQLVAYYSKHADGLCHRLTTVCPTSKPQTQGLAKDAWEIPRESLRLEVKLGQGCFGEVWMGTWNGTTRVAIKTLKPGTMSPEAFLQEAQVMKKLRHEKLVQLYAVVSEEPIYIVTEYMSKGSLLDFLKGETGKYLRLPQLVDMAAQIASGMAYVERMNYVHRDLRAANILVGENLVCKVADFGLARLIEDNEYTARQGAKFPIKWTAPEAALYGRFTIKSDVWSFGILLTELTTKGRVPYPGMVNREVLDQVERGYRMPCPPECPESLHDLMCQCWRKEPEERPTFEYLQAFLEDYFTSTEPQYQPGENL
T1 sequence (P49841 whole entry, the tested form may be a part): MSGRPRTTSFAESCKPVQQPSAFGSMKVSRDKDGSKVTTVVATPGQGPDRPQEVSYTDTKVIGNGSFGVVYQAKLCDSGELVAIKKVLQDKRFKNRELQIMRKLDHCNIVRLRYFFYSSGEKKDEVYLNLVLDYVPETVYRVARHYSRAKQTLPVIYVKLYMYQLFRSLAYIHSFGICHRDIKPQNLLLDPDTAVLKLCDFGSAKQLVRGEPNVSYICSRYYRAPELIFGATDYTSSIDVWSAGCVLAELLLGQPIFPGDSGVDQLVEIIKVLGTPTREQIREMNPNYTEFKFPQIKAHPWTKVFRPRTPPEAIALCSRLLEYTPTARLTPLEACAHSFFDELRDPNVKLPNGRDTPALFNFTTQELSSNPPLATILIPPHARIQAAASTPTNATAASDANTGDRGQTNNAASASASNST

Row | SMILES | Ki [1] | Ki [2] | Ki ([3]; read-out: Ki value on SRC) | melting point | Ki ([3]; read-out: Ki value for SRC)
1 | Cc1cccc(Nc2nc(Nc3cc(C4CC4)[nH]n3)c3ccccc3n2)c1 [IIc-19, (5-Cyclopropyl-2H-pyrazol-3-yl)-[2-(3-methylphenylamino)-quinazolin-4-yl]-amine] | 100 to 1000 nM | < 100 nM | < 100 nM | 117 °C | 
2 | Cc1cc(Nc2nc(Nc3cc(C4CC4)[nH]n3)c3ccccc3n2)ccc1Cl [IIc-24, [2-(4-Chloro-3-methylphenylamino)-quinazolin-4-yl]-(5-cyclopropyl-2H-pyrazol-3-yl)-amine] | < 100 nM | < 100 nM | < 100 nM | 244 to 246 °C | 
3 | Cc1cc(Nc2nc(Sc3ccc(NS(=O)(=O)C(C)C)cc3)nc3ccccc23)n[nH]1 [IIa-48, [2-(4-Isopropanesulfonylamino-phenylsulfanyl)-quinazolin-4-yl]-(5-methyl-2H-pyrazol-3-yl)-amine] | 100 to 1000 nM | < 100 nM |  | 294 to 297 °C | 1000 to 6000 nM
4 | Cc1cc(Nc2cc(-c3ccccc3)nc(Sc3ccc(NC(=O)CN(C)C)cc3)n2)n[nH]1 [IIIa-25, {2-[4-(2-Dimethylamino-acetylamino)-phenylsulfanyl]-6-phenyl-pyrimidin-4-yl}-(5-methyl-2H-pyrazol-3-yl)-amine] |  |  |  | 213 to 215 °C | 1000 to 6000 nM
5 | CC(=O)Nc1ccc(Sc2nc(Nc3cc(C)n[nH]3)c3ccc(OCCCN4CCOCC4)cc3n2)cc1 [IIa-45, [2-(4-Acetamidophenylsulfanyl)-7-(3-morpholin-4-yl-propoxy)-quinazolin-4-yl]-(5-methyl-2H-pyrazol-3-yl)-amine] | 1000 to 7000 nM | < 100 nM |  | 153 °C (dec.) | 1000 to 6000 nM
6 | c1ccc(OCc2nc(Nc3cc(C4CC4)[nH]n3)c3ccccc3n2)cc1 [IId-1, (5-Cyclopropyl-2H-pyrazol-3-yl)-(2-phenoxymethyl-quinazolin-4-yl)-amine] | < 100 nM | < 100 nM | < 100 nM | 265 to 267 °C | 
7 | c1ccc2c(Nc3cc(C4CC4)[nH]n3)nc(Oc3ccc4c(c3)CCCC4)nc2c1 [IIb-4, (5-Cyclopropyl-2H-pyrazol-3-yl)-[2-(5,6,7,8-tetrahydronaphthalen-2-yloxy)-quinazolin-4-yl]-amine] |  | < 100 nM | < 100 nM | 277 to 279 °C | 
8 | c1ccc(OCCNc2nc(Nc3cc(C4CC4)[nH]n3)c3ccccc3n2)cc1 [IIc-34, (5-Cyclopropyl-2H-pyrazol-3-yl)-[2-(2-phenoxyethylamino)-quinazolin-4-yl]-amine] | 100 to 1000 nM | < 100 nM | < 100 nM | 203 °C | 
9 | CC(=O)Nc1ccc(Sc2nc(Nc3cc(C)n[nH]3)cc(N3CCOCC3)n2)cc1 [IIIa-44, [2-(4-Acetamidophenylsulfanyl)-6-(morpholin-4-yl)-pyrimidin-4-yl]-(5-methyl-2H-pyrazol-3-yl)-amine] |  |  |  |  | 1000 to 6000 nM
10 | CC(=O)Nc1ccc(Sc2nc(Nc3cc(C)[nH]n3)c(C)c(-c3ccccc3)n2)cc1 [IIIa-21, [2-(4-Acetamido-phenyl-sulfanyl)-5-methyl-6-phenyl-pyrimidin-4-yl]-(5-methyl-2H-pyrazol-3-yl)-amine] | 1000 to 7000 nM |  |  | 276 to 277 °C | 1000 to 6000 nM
11 | Cc1cc(Nc2nc(Sc3ccc(C(=O)NCCCN(C)C)cc3)nc3ccccc23)n[nH]1 [IIa-70, {2-[4-(3-Dimethylamino-propylcarbamoyl)-phenylsulfanyl]-quinazolin-4-yl}-(5-methyl-2H-pyrazol-3-yl)-amine] |  | 100 to 1000 nM |  | 210 to 213 °C | 1000 to 6000 nM
12 | Cc1ccc(Sc2nc(Nc3cc(C4CC4)[nH]n3)c3ccccc3n2)cc1C [IIa-33, (5-Cyclopropyl-2H-pyrazol-3-yl)-[2-(3,4-dimethylphenylsulfanyl)-quinazolin-4-yl]-amine] |  | < 100 nM | < 100 nM | 255 to 256 °C | 
13 | COC(=O)c1cccc(Oc2nc(Nc3cc(C)[nH]n3)c3ccccc3n2)c1 [IIb-9, [2-(3-Methoxycarbonylphenoxy)-quinazolin-4-yl]-(5-methyl-2H-pyrazol-3-yl)-amine] | 100 to 1000 nM | < 100 nM |  |  | 1000 to 6000 nM
14 | Cc1cc(Nc2cc(-c3ccccc3)nc(Sc3ccc(NC(=O)C(C)C)cc3)n2)n[nH]1 [IIIa-13, [2-(4-Isobutyrylylamino-phenylsulfanyl)-6-phenylpyrimidin-4-yl]-(5-methyl-2H-pyrazol-3-yl)-amine] |  |  |  | 201 to 202 °C | 1000 to 6000 nM
15 | COCCNc1cc(Nc2cc(C)[nH]n2)nc(SCc2ccc(S(=O)(=O)N3CCOCC3)cc2)n1 [IIIa-36, {6-(2-Methoxy-ethylamino)-2-[4-(morpholinesulfonyl)-benzylsulfanyl]-pyrimidin-4-yl}-(5-methyl-2H-pyrazol-3-yl)-amine] | 1000 to 7000 nM |  |  | 193 to 195 °C | 1000 to 6000 nM
16 | Cc1cc(Nc2cc(N3CCCCC3)nc(SCc3cccc(Cl)c3)n2)n[nH]1 [IIIa-34, [2-(3-Chloro-benzylsulfanyl)-6-(piperidin-1-yl)-pyrimidin-4-yl]-(5-methyl-2H-pyrazol-3-yl)-amine] | 100 to 1000 nM |  |  | 234 to 235 °C | 1000 to 6000 nM
17 | c1ccc(-c2cc(Nc3cc(C4CC4)[nH]n3)nc(Sc3ccc4ccccc4c3)n2)cc1 [IIIa-1, (5-Cyclopropyl-2H-pyrazol-3-yl)-[2-(naphtalen-2-ylsulfanyl)-6-phenylpyrimidin-4-yl]-amine] | 100 to 1000 nM |  | < 100 nM | 233 to 234 °C | 
18 | Cc1cccc(Sc2nc(Nc3cc(C4CC4)[nH]n3)c3ccccc3n2)c1 [IIa-23, (5-Cyclopropyl-2H-pyrazol-3-yl)-[2-(3-methylphenylsulfanyl)-quinazolin-4-yl]-amine] | < 100 nM | < 100 nM | < 100 nM |  | 
19 | Cc1cc(Nc2cc(N3CCN(C)CC3)nc(SCc3ccc(S(=O)(=O)N4CCOCC4)cc3)n2)n[nH]1 [IIIa-37, {6-(4-methylpiperazin-1-yl)-2-[4-(morpholinesulfonyl)-benzylsulfanyl]-pyrimidin-4-yl}-(5-methyl-2H-pyrazol-3-yl)-amine] | 100 to 1000 nM |  |  | 206 to 207 °C | 1000 to 6000 nM
20 | Cc1cc(Nc2nc(NCc3ccc(F)cc3)nc3ccccc23)n[nH]1 [IIc-13, [2-(4-Fluorobenzylamino)-quinazolin-4-yl]-(5-methyl-2H-pyrazol-3-yl)-amine] | 100 to 1000 nM | < 100 nM | < 100 nM |  | 
21 | Cc1cc(Nc2nc(Sc3ccccc3N)nc3ccccc23)n[nH]1 [IIa-20, [2-(2-Aminophenylsulfanyl)-quinazolin-4-yl]-(5-methyl-2H-pyrazol-3-yl)-amine] | 100 to 1000 nM | 100 to 1000 nM |  |  | 1000 to 6000 nM
22 | c1ccc2cc(Sc3nc(Nc4cc(C5CC5)[nH]n4)c4ccccc4n3)ccc2c1 [IIa-27, (5-Cyclopropyl-2H-pyrazol-3-yl)-[2-(naphtalen-2-ylsulfanyl)-quinazolin-4-yl]-amine] |  | < 100 nM | < 100 nM | 285 to 288 °C | 
23 | COc1cccc(Sc2nc(Nc3cc(C4CC4)[nH]n3)c3ccccc3n2)c1 [IIa-24, (5-Cyclopropyl-2H-pyrazol-3-yl)-[2-(3-methoxyphenylsulfanyl)-quinazolin-4-yl]-amine] | < 100 nM | < 100 nM | < 100 nM |  | 
